The values below come from patent publication US10695348B2, “Sulfonyl pyridyl TRP inhibitors” (Genentech, Inc., priority 2017, dated 2020).

Series [1] is described as follows: Human protein plasma binding. The series is classed as in vitro ADME. The note with it: read-out: hPPB (human protein plasma binding) (converted). The procedure: Certain pharmacokinetic attributes were evaluated for sulfonyl pyridyl compounds of the present disclosure. The results are shown in Table 3 below where: “hTRPA1” refers to IC50 in nM; “hPPB” refers to human protein plasma binding in percent; “Corrected IC50” refers to the hTRPA1 values corrected for hPPB; “HLM-CLhep” refers to human liver microsome clearance in mL/min/kg; “K.Sol” refers to estimated aqueous solubility in μM; and “NR” refers to not run.
Human protein plasma binding may be measured according to the methods described by Banker et al., “Plasma/Serum Protein Binding Determinations,” Current Drug Metabolism (2008), 9, 854-859, and Kariv et al., “Development of a high throughput equilibrium dialysis method,” J. Pharm Sci. (2001) May; 90(5):580-87, as well as using commercially available assay kits by Wyatt, Cerep, Cyprotex and others.

Series [2] concerns the target T1, human TRPA1 (Homo sapiens, UniProt O75762).
T1 construct: expressed in transfected cells; host or cells: CHO cells
The series can be described thus: FLIPR Tetra calcium influx assay, CHO cells expressing TRPA1, cinnamaldehyde agonist (hTRPA1 CHO Ca2+ AUC EVO). The series is classed as cell-based. The procedure: The IC50 ([…]) of compounds on the human and rat TRPA1 channels were determined using a FLIPR Tetra instrument. CHO cells expressing TRPA1 were plated into 384-well plates, incubated overnight at 37° C., and loaded with BD calcium indicator dye for 1 hr at 37° C. followed by 15 minutes at room temperature. The assay buffer was Hank's Balanced Salt Solution (HBSS) containing 20 mM HEPES (pH readjusted to 7.4) along with 0.02% BSA.
Following dye load and plate cool down, compounds were added to the cells using FLIPR Tetra. Plates were then incubated with compounds for 20 minutes at room temperature prior to adding agonist. Following this incubation, about an EC80 concentration of cinnamaldehyde (75 uM for human TRPA1 and 45 uM for rat TRPA1) was added to active the channels and block of cinnamaldehyde induced calcium influx was measured.
The IC50 results were fit with a standard Hill function, keeping the Hill coefficient (n) fixed to 1.5. Fixing the Hill coefficient will generally reduce variability of the IC50 determination. The IC50 results were individually examined to make sure the MIN and MAX points were set correctly prior to validation of the results.

The nature of series [3]: Aqueous solubility (K. Sol). The series is classed as physicochemical. The note with it: aqueous medium (not further specified), kinetic from dmso stock; read-out: K. Sol (estimated aqueous solubility). An excerpt:
Aqueous solubility may be determined using the procedures reported by Alsenz et al., “High throughput solubility measurement in drug discovery and development,” Advanced Drug Delivery Reviews (2007) 59, 546-568 and Kibbey et al., “An Integrated Process for Measuring the Physicochemical Properties of Drug Candidates in a Preclinical Discovery Environment,” J. Pharmaceutical Sci. (2001) 90(8), 1164-1175.

Series [4] in a line: Human liver microsome clearance / stability. The series is classed as in vitro ADME. The note with it: human liver microsomes. The source says:
Human liver microsome clearance (mL/min/kg) may be measured according to the method described by Ackley et al, “Metabolic Stability Assessed by Liver Microsomes and Hepatocytes”, in “Optimization in Drug Discovery” in the “Methods in Pharmacology and Toxicology” series (ISSN 1557-2153), pp. 151-162 (Yan, Ed., Print ISBN 978-1-58829-332-9, Springer (2004), as well as by using commercially available assay kits by Cerep, Cyprotex, Bd Bioscience and others.
Human liver microsome HLM stability may be measured as using the procedure of Ackley et al. as described above.
On the technique in general: Microsomes from liver hold many membrane-bound enzymes, among them those of drug oxidation.

Series [5] deals with T1, human TRPA1. Description: Human Ca2+ MAX IC50 calcium assay. The series is classed as cell-based. The note with it: Table 5; read-out: H Ca2+ MAX (human CA2+ MAX IC50). The source says:
Human Ca2+ MAX IC50 may be measured using one of the commercially available calcium assay kits provided by Molecular Devices, Abcam, Bio-Rad, Biovision, Enzo Lifesciences, Abnova, Sigma-Aldrich, or others.

A short description of series [6]: GSH (glutathione) trapping of reactive metabolites. The series is classed as in vitro ADME. The note with it: in vitro incubation with glutathione as trapping reagent. The procedure:
GSH trapping in a method for screening reactive metabolites for the potential to cause adverse drug reactions. Reactive metabolites may implicate clinical toxicity through drug compound bioactivation or inactivation of proteins. One such assessment utilizes in vitro incubations comprising glutathione (GSH) as a trapping reagent. LC/MS may be used to detect and characterize reactive intermediate formation as indicated by trapped glutathione adducts, as described by Yan et al., “Stable Isotope Trapping and High Throughput Screenings of Reactive Metabolites Using the Active MS Signature,” Anal. Chem. (2004), 76, 6835-6847.

Where [7] appears, read: Table 3, read-out: hTRPA1 (IC50).
Where [8] appears, read: calculated from hTRPA1 IC50 and hPPB, read-out: Corrected IC50 (hTRPA1 values corrected for hPPB).

pIC50: −log10 of the molar value. ≈ marks a conversion by molar mass, not a printed value.

T1 sequence (O75762 whole entry): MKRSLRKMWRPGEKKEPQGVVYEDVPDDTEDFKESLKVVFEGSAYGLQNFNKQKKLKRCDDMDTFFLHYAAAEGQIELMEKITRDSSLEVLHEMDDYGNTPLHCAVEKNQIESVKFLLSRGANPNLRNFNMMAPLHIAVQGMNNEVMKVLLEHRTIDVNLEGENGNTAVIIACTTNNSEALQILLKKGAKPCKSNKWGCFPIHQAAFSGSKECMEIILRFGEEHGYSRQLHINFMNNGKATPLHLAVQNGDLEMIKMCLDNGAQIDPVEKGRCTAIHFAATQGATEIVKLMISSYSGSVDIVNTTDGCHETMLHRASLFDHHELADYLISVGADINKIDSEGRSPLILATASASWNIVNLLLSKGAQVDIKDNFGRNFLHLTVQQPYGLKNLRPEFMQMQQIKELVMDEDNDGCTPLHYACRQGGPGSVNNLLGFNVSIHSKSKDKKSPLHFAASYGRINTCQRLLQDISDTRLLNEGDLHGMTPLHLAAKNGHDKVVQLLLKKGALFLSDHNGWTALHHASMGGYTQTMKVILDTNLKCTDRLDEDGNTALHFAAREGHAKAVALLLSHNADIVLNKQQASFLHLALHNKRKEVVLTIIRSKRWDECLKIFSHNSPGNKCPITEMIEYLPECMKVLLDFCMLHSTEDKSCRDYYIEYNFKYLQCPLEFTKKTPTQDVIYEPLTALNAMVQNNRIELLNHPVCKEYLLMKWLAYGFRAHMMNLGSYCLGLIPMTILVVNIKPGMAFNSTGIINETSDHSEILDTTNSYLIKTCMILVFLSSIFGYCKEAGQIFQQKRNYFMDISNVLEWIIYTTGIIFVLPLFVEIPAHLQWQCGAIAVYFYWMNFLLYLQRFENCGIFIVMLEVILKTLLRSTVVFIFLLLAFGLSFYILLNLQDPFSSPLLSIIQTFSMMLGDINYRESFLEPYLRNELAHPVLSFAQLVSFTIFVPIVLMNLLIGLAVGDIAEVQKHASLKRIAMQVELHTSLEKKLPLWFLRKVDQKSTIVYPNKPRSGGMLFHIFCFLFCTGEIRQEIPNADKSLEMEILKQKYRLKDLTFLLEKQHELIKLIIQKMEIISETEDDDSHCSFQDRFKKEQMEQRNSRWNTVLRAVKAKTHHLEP

Broadly, the pIC50 is the negative decadic logarithm of the IC50, by convention in mol/L. Usually solubility stands for how much of the substance goes into solution per volume. In the case of `C[C@H]1[C@H](F)C[C@@H](C(=O)NCc2cc(-c3cnc(C(F)(F)F)nc3)ncc2C(F)(F)F)N1S(=O)(=O)c1ccc(F)cn1` (single isomer, unassigned) [Pyridyl Sulfonamide 1], in series [1], the fraction unbound was 0.049. In addition, the results for the negative logarithm of the IC50 (pIC50) on human TRPA1 [2] (setting [7]) and at human TRPA1 [2] (setting [8]) were 8.10 and 6.79, respectively. Further, in series [3], the solubility is 30 µM (≈ 18.3 µg/mL). The “HLM-CLhep (human liver microsome clearance)” value in series [4] (Table 3) turned out to be 4 mL/min/kg.

Regarding `C[C@H]1[C@H](F)C[C@@H](C(=O)NCc2cc(-c3cnc(C(F)(F)F)nc3)ncc2F)N1S(=O)(=O)c1ccc(F)cn1` (single isomer, unassigned) [Pyridyl Sulfonamide 2], the fraction unbound in series [1] is 0.075. The pIC50 at human TRPA1 [2] (setting [7]) is 6.39; at human TRPA1 [2] (setting [8]), 5.27. In addition, the solubility in series [3] was 4 µM (≈ 2.24 µg/mL).

For the molecule `C[C@H]1[C@H](F)C[C@@H](C(=O)NCc2cc(-c3cnc(C(F)(F)F)nc3)cnc2C(F)F)N1S(=O)(=O)c1ccc(F)cn1` (single isomer, unassigned) [Pyridyl Sulfonamide 3], the fraction unbound in series [1] is 0.17. Also, the pIC50 on human TRPA1 [2] (setting [7]) was 6.48; at human TRPA1 [2] (setting [8]), 5.71.

For `C[C@H]1[C@H](F)C[C@@H](C(=O)NCc2cc(-c3cnc(C(F)(F)F)nc3)ncc2C(F)(F)F)N1S(=O)(=O)c1ccc(Cl)nc1` [Compound 5], the negative-log IC50 (pIC50) on human TRPA1 [5] is 8.30. In addition, the “GSH trapping (glutathione trapping)” value in series [6] is reported as “positive”. In addition, the “HLM (human liver microsome stability)” value in series [4] (Table 5) was 6.6 mL/min/kg.
